The results in this text go back to patent publication US9051310B2, “Nicotinamide derivative or salt thereof” (FUJIFILM Corporation, priority 2011, dated 2015).

Experiment [1] concerns the target T1, glutathione S-transferase (GST)-linked full-length human Syk protein (Homo sapiens, UniProt P43405).
T1 construct: glutathione S-transferase (GST)-linked full-length human Syk protein; purchased Carna Biosciences; host or cells: Baculovirus expression system
As to the kind of experiment: Syk enzyme assay. It counts as biochemical. To be noted: 0.83 nM Syk, time-resolved fluorescence; read-out: IC50 of Syk-inhibitory activity. The procedure, abridged:
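Phosphotyrosine on a biotin-peptide substrate (0.5 μM) was read by time-resolved fluorescence at 615 and 665 nm with Eu-anti-pTyr antibody and APC-streptavidin after 1 h EDTA stop.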

Experiment [2] concerns THP-1 cells (TNFα secretion on human IgG-coated plate). As to the kind of experiment: TNFα generation assay. To be noted: IFN-γ differentiated THP-1 cells, 7 hours, AlphaLISA, read-out: IC50 of TNFα generation inhibitory activity. The format is cell-based. The essentials:
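Secreted TNFα was measured by AlphaLISA after 7 h of culture on human IgG-coated wells (coating at 10 μg/ml), with 5×10^4 cells/well. Before plating, the cells had been treated with compound for 30 min at room temperature. The cells were macrophage-like THP-1, produced by a 2-day exposure to 10 ng/ml IFN-γ.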
(Alpha assays give light when donor and acceptor beads are brought close together.)

In experiment [3] the test system is THP-1 cells (phagocytosis of opsonized Escherichia coli). Nature of the experiment: Antibody-dependent phagocytosis assay. To be noted: Homo sapiens; IFNγ differentiated THP-1 cells, opsonized pHrodo Escherichia coli, 3 hours; read-out: IC50 upon phagocytosis inhibition. It counts as cell-based. Here is the method: THP-1 cells (2×10^5 cells/ml), which were human monocytoid cells, were cultured in the presence of 10 ng/ml IFNγ for 2 days, and they were induced to differentiate into macrophage-like cells. The differentiation-induced THP-1 cells were recovered, and the cells (5×10^4 cells/well) were then allowed to react with a predetermined concentration of test compound at room temperature for 30 minutes. Thereafter, Escherichia coli (Life Technologies) labeled with a pH-sensitive dye (pHrodo) was subjected to opsonization using an anti-Escherichia coli antibody (Life Technologies). Then, the resultant was added to the THP-1 cells obtained above, followed by incubation at 37° C. for 3 hours. Opsonized Escherichia coli and cell-permeable fluorescent dye (Calcein AM) were simultaneously added thereto, followed by quantitative determination of phagocytosis of opsonized Escherichia coli in viable cells using an IN Cell Analyzer.

For the molecule `COCCn1nc(C)c2cc(Nc3nc(N[C@H](COC)[C@H](C)N)c(F)cc3C(N)=O)ccc21` [Example 2-135, 6-(((2S,3S)-3-amino-1-methoxybutan-2-yl)amino)-5-fluoro-2-((1-(2-methoxyethyl)-3-methyl-1H-indazol-5-yl)amino)nicotinamide], the IC50 lay in the range of 10 to 50 nM in experiment [1], 130 to 200 nM in experiment [2] and 1000 to 3000 nM in experiment [3].
The matching figures for `Cc1ncc(Nc2nc(N[C@@H]3CCOC[C@@H]3N)c(F)cc2C(N)=O)cc1-n1nccn1` [Example 2-214, 6-(((3R,4R)-3-aminotetrahydro-2H-pyran-4-yl)amino)-5-fluoro-2-((6-methyl-5-(2H-1,2,3-triazol-2-yl)pyridin-3-yl)amino)nicotinamide]: below 10 nM, 65 to 130 nM and 1000 to 3000 nM.
The matching figures for `CCn1ncc2c(Nc3nc(N[C@@H]4CCCC[C@@H]4N)c(F)cc3C(N)=O)cncc21` [Example 2-316]: below 10 nM, 65 to 130 nM and below 1000 nM.
The matching figures for `CC[C@@H](Nc1nc(Nc2ccc3c(c2)c(N(C)C)nn3C)c(C(N)=O)cc1F)[C@H](C)N` [Example 2-4]: below 10 nM, 65 to 130 nM and 1000 to 3000 nM.
As for `CC[C@H](N)[C@@H](C)Nc1nc(Nc2ccc3c(c2)c(C)nn3CCOC)c(C(N)=O)cc1F` [Example 2-136, 6-(((2R,3S)-3-aminopentan-2-yl)amino)-5-fluoro-2-((1-(2-methoxyethyl)-3-methyl-1H-indazol-5-yl)amino)nicotinamide], the IC50 was in the range of 10 to 50 nM in experiment [1], 130 to 200 nM in experiment [2] and 1000 to 3000 nM in experiment [3].
For `NC(=O)c1cc(F)c(N[C@@H]2CCOC[C@@H]2N)nc1Nc1cccc2c1cnn2CC(F)F` [Example 2-332, 6-(((3R,4R)-3-aminotetrahydro-2H-pyran-4-yl)amino)-2-((1-(2,2-difluoroethyl)-1H-indazol-4-yl)amino)-5-fluoronicotinamide], in that order: below 10 nM, 65 to 130 nM and below 1000 nM.
`CC[C@@H](Nc1nc(Nc2cccc3c2cnn3CC(F)F)c(C(N)=O)cc1F)[C@H](C)N` [Example 2-23, 6-(((2S,3R)-2-aminopentan-3-yl)amino)-2-((1-(2,2-difluoroethyl)-1H-indazol-4-yl)amino)-5-fluoronicotinamide]: the IC50 is below 10 nM in experiment [1], 65 to 130 nM in experiment [2] and below 1000 nM in experiment [3].
For `CCC[C@@H](Nc1nc(Nc2cncc3c2cnn3CC)c(C(N)=O)cc1F)[C@H](C)N` [Example 2-319, 6-(((2S,3R)-2-aminohexan-3-yl)amino)-2-((1-ethyl-1H-pyrazolo[3,4-c]pyridin-4-yl)amino)-5-fluoronicotinamide], in that order: below 10 nM, 65 to 130 nM and below 1000 nM.
The matching figures for `Cc1ncc(Nc2nc(N[C@H](C3CCC3)[C@H](C)N)c(F)cc2C(N)=O)cc1F` [Example 2-221, 6-(((1R,2S)-2-amino-1-cyclobutylpropyl)amino)-5-fluoro-2-((5-fluoro-6-methylpyridin-3-yl)amino)nicotinamide]: below 10 nM, 130 to 200 nM and below 1000 nM.
For `CC[C@H](N)[C@@H](C)Nc1nc(Nc2cncc3c2cnn3CC)c(C(N)=O)cc1F` [Example 2-325, 6-(((2R,3S)-3-aminopentan-2-yl)amino)-2-((1-ethyl-1H-pyrazolo[3,4-c]pyridin-4-yl)amino)-5-fluoronicotinamide], in that order: below 10 nM, 130 to 200 nM and below 1000 nM.
Take `CCC[C@@H](Nc1nc(Nc2ccc3c(c2)c(OC)nn3CCOC)c(C(N)=O)cc1F)[C@H](C)N` [Example 2-126, 6-(((2S,3R)-2-aminohexan-3-yl)amino)-5-fluoro-2-((3-methoxy-1-(2-methoxyethyl)-1H-indazol-5-yl)amino)nicotinamide]: the IC50 in experiment [1] was below 10 nM; in experiment [2] it was 65 to 130 nM; in experiment [3], below 1000 nM.
In the case of `CC(C)C[C@@H](Nc1nc(Nc2ccnc(N3CCOCC3)c2F)c(C(N)=O)cc1F)[C@H](C)N` [Example 2-235, 6-(((2S,3R)-2-amino-5-methylhexan-3-yl)amino)-5-fluoro-2-((3-fluoro-2-morpholinopyridin-4-yl)amino)nicotinamide], the IC50 in experiment [1] is below 10 nM; in experiment [2] it was 65 to 130 nM; in experiment [3], below 1000 nM.
In the case of `CCCC[C@@H](Nc1nc(Nc2cncc3c2cnn3CC)c(C(N)=O)cc1F)[C@H](C)N` [Example 2-321, 6-(((2S,3R)-2-aminoheptan-3-yl)amino)-2-((1-ethyl-1H-pyrazolo[3,4-c]pyridin-4-yl)amino)-5-fluoronicotinamide], the IC50 in experiment [1] is below 10 nM; in experiment [2], 130 to 200 nM; in experiment [3], 1000 to 3000 nM.
As to `COC[C@@H](Nc1nc(Nc2ccc3c(c2)c(OC)nn3C)c(C(N)=O)cc1F)[C@H](C)N` [Example 2-121, 6-(((2S,3S)-3-amino-1-methoxybutan-2-yl)amino)-5-fluoro-2-((3-methoxy-1-methyl-1H-indazol-5-yl)amino)nicotinamide], the IC50 in experiment [1] was below 10 nM; in experiment [2], 130 to 200 nM; in experiment [3], 1000 to 3000 nM.
The matching figures for `CCn1ncc2c(Nc3nc(N[C@H](C4CCC4)[C@H](C)N)c(F)cc3C(N)=O)cccc21` [Example 2-98, 6-(((1R,2S)-2-amino-1-cyclobutylpropyl)amino)-2-((1-ethyl-1H-indazol-4-yl)amino)-5-fluoronicotinamide]: below 10 nM, 130 to 200 nM and below 1000 nM.
For `CNc1ncc(Nc2nc(N[C@H](C3CCC3)[C@H](C)N)c(F)cc2C(N)=O)cc1F` [Example 2-275, 6-(((1R,2S)-2-amino-1-cyclobutylpropyl)amino)-5-fluoro-2-((5-fluoro-6-(methylamino)pyridin-3-yl)amino)nicotinamide], the IC50 was 10 to 50 nM in experiment [1], 130 to 200 nM in experiment [2] and 1000 to 3000 nM in experiment [3].
The matching figures for `CC(C)C[C@@H](Nc1nc(Nc2cncc(-n3cccn3)c2)c(C(N)=O)cc1F)[C@H](C)N` [Example 2-70, 2-((5-(1H-pyrazol-1-yl)pyridin-3-yl)amino)-6-(((2S,3R)-2-amino-5-methylhexan-3-yl)amino)-5-fluoronicotinamide]: below 10 nM, 130 to 200 nM and 1000 to 3000 nM.
The matching figures for `COc1ncc(Nc2nc(N[C@@H]3CCOC[C@@H]3N)c(F)cc2C(N)=O)cc1-n1nccn1` [Example 2-216, 6-(((3R,4R)-3-aminotetrahydro-2H-pyran-4-yl)amino)-5-fluoro-2-((6-methoxy-5-(2H-1,2,3-triazol-2-yl)pyridin-3-yl)amino)nicotinamide]: 10 to 50 nM, 130 to 200 nM and 1000 to 3000 nM.
Take `C[C@H](N)[C@@H](CC1CC1)Nc1nc(Nc2cccc3c2cnn3CC(F)F)c(C(N)=O)cc1F` [Example 2-21, 6-(((2R,3S)-3-amino-1-cyclopropylbutan-2-yl)amino)-2-((1-(2,2-difluoroethyl)-1H-indazol-4-yl)amino)-5-fluoronicotinamide]: the IC50 in experiment [1] was below 10 nM; in experiment [2], 130 to 200 nM; in experiment [3], below 1000 nM.
`CCn1ncc2c(Nc3nc(N[C@H](C4CCC4)[C@H](C)N)c(F)cc3C(N)=O)cncc21` [Example 2-406, 6-(((1R,2S)-2-amino-1-cyclobutylpropyl)amino)-2-((1-ethyl-1H-pyrazolo[3,4-c]pyridin-4-yl)amino)-5-fluoronicotinamide]: the IC50 in experiment [1] was below 10 nM; in experiment [2], 130 to 200 nM; in experiment [3] it was 1000 to 3000 nM.
For `CC[C@H](N)[C@@H](C)Nc1nc(Nc2cnc(C)c(F)c2)c(C(N)=O)cc1F` [Example 2-270, 6-(((2R,3S)-3-aminopentan-2-yl)amino)-5-fluoro-2-((5-fluoro-6-methylpyridin-3-yl)amino)nicotinamide], in that order: 10 to 50 nM, 65 to 130 nM and 1000 to 3000 nM.
With `COCCn1nc(OC)c2cc(Nc3nc(N[C@H](CC(C)C)[C@H](C)N)c(F)cc3C(N)=O)ccc21` [Example 2-127, 6-(((2S,3R)-2-amino-5-methylhexan-3-yl)amino)-5-fluoro-2-((3-methoxy-1-(2-methoxyethyl)-1H-indazol-5-yl)amino)nicotinamide], the IC50 was below 10 nM in experiment [1], 130 to 200 nM in experiment [2] and below 1000 nM in experiment [3].
For `CC[C@@H](Nc1nc(Nc2cnc(C)c(-n3nccn3)c2)c(C(N)=O)cc1F)[C@H](C)N` [Example 2-31, 6-(((2S,3R)-2-aminopentan-3-yl)amino)-5-fluoro-2-((6-methyl-5-(2H-1,2,3-triazol-2-yl)pyridin-3-yl)amino)nicotinamide], in that order: below 10 nM, 65 to 130 nM and below 1000 nM.
